The record followed here is patent publication US20240190866A1, “POLYHYDROXYLATED INDOLIZIDINE AND PYRROLIZIDINE DERIVATIVES AND USES THEREOF” (Academia Sinica, priority 2021, published 2024).

Structures are written as SMILES.

Data set [1] concerns HepG2 cells. The data set can be described thus: Anti-proliferative activity assay (MTT). The data set is classed as cell-based, human. To be noted: 72 h. As for the experimental part: (§1) Human liver cancer HepG2 cells and Huh7 cells, breast cancer MDA-MB-231 cells, pancreatic cancer PANC-1 cells, and non-small cell lung (NSCL) cancer H1975 cells were maintained in Dulbecco's Modified Eagle Medium supplemented containing 10% fetal bovine serum (FBS), 100 units/ml penicillin and […] streptomycin in 37° C. incubator with 5% CO2.
(§2) Anti-proliferative activity of HepG2, Huh7 or PANC-1 cells was determined by 3-(4,5-dimethylthiazol-2-yl)-2,5-diphenyltetrazolium bromide (MTT) assay, while that of H1975 or MDA-MB-231 cells was determined by luminescent assay with the aid of commercial kit CellTiter-Glo® (Promega).
(§3) Cancer cells including HepG2, Huh7 and PANC-1 cells were respectively seeded at 10^4, 4×10^3, and 5×10^3 cells/well in 96-well plates and maintained for 14-16 hours. Cells were treated with dimethylsulfoxide (DMSO) or test compounds in varied concentrations for 72 h. Cells were then washed with PBS twice, added a medium containing 3-(4,5-dimethylthiazol-2-yl)-2,5-diphenyltetrazolium bromide (MTT) at a final concentration of 0.5 mg/mL, and incubated for 4 h at 37° C. in a humidified incubator containing 5% CO2 in air. Cells having functional succinate dehydrogenase of mithchondria would convert MTT to formazan. Then, the medium was replaced with 100 μL of DMSO for 30 min at room temperature, and the 96-well plate was read by an ELISA reader at 550 nm to get the absorbance density values. The IC50 values of death cell lines were calculated accordingly.

Data set [2] has as its system Huh7 cells. Description: Anti-proliferative activity assay (MTT). Type of data set: cell-based, human. Conditions: 72 h. As for the experimental part: as §1, §2, §3
For data set [3], the system named is PANC-1 cells. Description: Anti-proliferative activity assay (MTT). The data set is classed as cell-based, human. Conditions: 72 h. The method, then:
as §1, §2, §3

For data set [4], the system named is all cancer cell lines (HepG2, Huh7, PANC-1, H1975, MDA-MB-231). Description: Anti-proliferative activity, pooled statement over all cancer cell lines. Type of data set: cell-based, human. To be noted: read-out: half maximum inhibitory concentration (IC50), range in all cancer cell lines. The method, then:
as §2, §3
For H1975 and MDA-MB-231, cells were respectively seeded at 5×10^3 cells/well in 96-well plates and maintained for 14-16 hours. Cells were treated with dimethylsulfoxide (DMSO) or test compounds in varied concentrations for 48 h. Cell viability was monitored using Cell-TiterGlo (Promega), a kit that measures the quantity of ATP present in the cell culture, an indicator of metabolically active cells. The IC50 values of death cell lines were calculated accordingly.

Data set [5] relates to HepG2 cells. The data set can be described thus: N-glycan profiling by mass spectrometric analysis. The data set is classed as cell-based, human. To be noted: HepG2, 0.1 to 10 μM, 72 h. The method, then:
(§4) To this purpose, HepG2 and Huh7 cells were treated with ACK900 in dose-dependent manner (0.1 to 10 μM) for 72 h and N-glycan profiling was determined using mass spectrometric analysis. (FIGS. 1B and 1C)), This method was based on matching the experimental masses with the predicted masses of the glycans from the CFG carbohydrate database. The individual glycoforms were quantified and calculated for their proportions in all the glycoforms. Most N-glycans of untreated HepG2 and Huh7 were dominated by complex-type glycans containing sialic acids and fucoses. High-mannose or hybrid-type glycans were found in a relatively low percentage. […] These glycoform data from MS analysis were consistent with the surface binding of lectin using fluorescence microscopy.

Data set [6] deals with Huh7 cells. Description: N-glycan profiling by mass spectrometric analysis. The data set is classed as cell-based, human. Conditions: Huh7, 0.1 to 10 μM, 72 h. The method, then:
as §4

The subject of data set [7] is Huh7 cells. The data set can be described thus: Transwell invasion assay. The data set is classed as cell-based, human. As for the experimental part:
(§5) Chemotaxis experiments with human HepG2Huh7, or PANC-1 cells were assayed by using transwells (Millipore). The cells to be analyzed (5×10^4 cells/well) were seeded in the upper chambers of the 24-well plate in 400 μL serum-free medium. FBS (10%) was used as the chemoattractant with or without different concentrations of the test compound (e.g., ACK900, ACK901, ACK902) in the lower chamber, and the plate was incubated under standard conditions. After incubation for 18 hours, the media in the upper chambers were aspirated and washed with phosphate-buffered saline (PBS) twice. Both non-migrated and migrated cells were fixed with 4% paraformaldehyde (PFA) for 30 minutes at room temperature, stained with 2% crystal violet solution. The non-invading cells were removed from the upper surface of the insert membrane with a cotton swab. The images were taken using an imaging reader (Cytation 5, BioTek, VT, U.S.A.) and analyzed using NIH ImageJ software. Percent in the results represent percent of initial number of cells in the migrating and nonmigrating Cell fractions.

Data set [8] concerns PANC-1 cells. The data set can be described thus: Transwell invasion assay. To be noted: PANC-1, transwell. Type of data set: cell-based, human. As for the experimental part:
as §5

Data set [9] in a line: Serum biochemistry assay in Huh7 xenograft mice. To be noted: serum, 30 mg/kg i.p., twice a week. Type of data set: in vivo, NOD-SCID mice. The method, then: All blood specimens were collected in tubes and were left at 25° C. for 30 min to clot and centrifuged for 10 min at 1200 g. The concentrations of the following biochemical serum analytes collected were measured with FUJI DRI-CHEM 500i analyzer (FUJIFILM Corp., Tokyo, Japan) using the manufacturer's reagents and according to the manufacturer's instructions: Alanine Aminotransferase ALT), Aspartate Aminotransferase (AST), Blood Urea Nitrogen (BUN), Creatinine (CRE) and Total Bilirubin (TBIL).
HCC xenografts were established in 5-6 weeks old NOD-SCID mice by subcutaneous inoculation of about 5×10^6 Huh7 cells suspended in 50 μL PBS+50 μL, Matrigel (Corning, 394230) in the left and right flanks of each mouse. After one week of inoculation, tumors were palpable and the mice were assigned randomly to 1 of 4 treatment groups. Group 1 (vehicle control group, n=6) mice only received a vehicle solution containing Kolliphor EL (Sigma Aldrich, C5135), 99.9% ethanol and water in a ratio of 1:1:6. Groups 2, 3, 4 and 5 mice were intraperitoneally injected with the test compound (e.g., compound ACK900, ACK901, or ACK902) (30 mg/kg, ip, n=7/group) or sorafenib (30 mg/kg, ip, n=6/group), twice per week for 25 days. The tumor volume was calculated by the formula of a ratioinal ellipsoid: [0.5236×short axis) m1^2×(long axis)m^2], and the tumor volume was measured twice per week. All mice were sacrificed at 27 days after the treatment started. Tumor tissues were isolated, photographed and weighted.
In vivo tumor growth inhibition studies in human Huh7 xenograft rodents were performed in accordance with procedures as described in the “Material and Method” section. Xenograft tumors were generated by implanting Huh7 cells (5×10^6) subcutaneously into the left and right flanks of each NOD-SCID mouse. Starting on the 7th day after the inoculation of Huh7 cells, the mice were injected with ACK900, ACK901, ACK902 or sorafenib intraperitoneally (i.p.) at a dose of 30 mg/kg and twice a week for 34 days.

As for `CCC[C@H]1CC[C@H](c2ccc(NC(=S)NC[C@@H]3[C@@H](O)[C@@H](O)[C@H]4[C@H](O)CCCN43)cc2)CC1` [ACK900], the IC50 was 5.9 µM in the data set on HepG2 cells [1], 7.8 µM in the data set with Huh7 cells [2], 14.5 µM with PANC-1 cells [3] and 0.3 to 19.1 µM in data set [4]. Also, the N-glycan pattern entry in the data set on HepG2 cells [5] and in the data set on Huh7 cells [6] was “significant shift of N-glycopatterns from complex chains to the hybrid-type glycan” in each case. Besides, the invasive capability result in the data set on Huh7 cells [7] and with PANC-1 cells [8] was “remarkably decreased” in each case. Further, in data set [9], the ALT was 101.57 ± 70.63 U/L. The compound further yielded an AST in [9] of 223.42 ± 157.00 U/L. The compound also returned a BUN in data set [9] of 22.37 ± 4.41 mg/dL. This compound displayed a CRE in data set [9] of 0.33 ± 0.05 mg/dL. In addition, the TBIL in data set [9] amounted to 0.55 ± 0.18 mg/dL.
